This note sets out measurements from patent US20130303509A1, “NAMPT INHIBITORS” (AbbVie Inc., priority 2012, published 2013).

This experiment concerns PC3 cells. Nature of the experiment: NAMPT Cell Proliferation Assay. The class given is cell-based. Particulars: Homo sapiens, PC-3, 120 h, 5 days incubation, cell viability by Cell Titer Glo. The procedure, abridged: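 Five-day CellTiter-Glo viability readout in PC3 cells grown in RPMI/10% heat-inactivated FBS. Compounds added after overnight attachment as a 10-fold dilution series, […]. Percent inhibition fitted to sigmoidal dose-response to derive IC50.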
For orientation: ATP-based viability assays read luminescence as a measure of living cells.

As usually defined, the pIC50 is the IC50 on a negative log10 scale, so that one unit is a factor of ten. Read a low pIC50 as a large IC50.

The structures appear in SMILES notation. pIC50: −log10 of the molar value.

Consider `Cc1ccc(C(=O)N2CC[C@@H](Oc3ccc(NC(=O)C4CN(c5ccnnc5)C4)cc3)C2)s1` [Example 458, N-[4-({(3R)-1-[(5-methylthiophen-2-yl)carbonyl]pyrrolidin-3-yl}oxy)phenyl]-1-(pyridazin-4-yl)azetidine-3-carboxamide], for which the pIC50 was 7.19.

As to `O=C(Nc1ccc(O[C@@H]2CCN(C(=O)Cc3ccccc3F)C2)cc1)C1CN(c2ccnnc2)C1` [Example 459, N-[4-({(3R)-1-[(2-fluorophenyl)acetyl]pyrrolidin-3-yl}oxy)phenyl]-1-(pyridazin-4-yl)azetidine-3-carboxamide], the pIC50 is 7.43.

Compound `O=C(Nc1ccc(O[C@@H]2CCN(C(=O)C3CC3)C2)cc1)C1CN(c2ccnnc2)C1` [Example 460, N-(4-{[(3R)-1-(cyclopropylcarbonyl)pyrrolidin-3-yl]oxy}phenyl)-1-(pyridazin-4-yl)azetidine-3-carboxamide] showed a pIC50 of 6.65.

As to `O=C(Nc1ccc(O[C@@H]2CCN(C(=O)C3CCOC3)C2)cc1)C1CN(c2ccnnc2)C1` (stereo partly drawn) [Example 461, 1-(pyridazin-4-yl)-N-(4-{[(3R)-1-(tetrahydrofuran-3-ylcarbonyl)pyrrolidin-3-yl]oxy}phenyl)azetidine-3-carboxamide], the pIC50 was 6.19.

The compound `O=C(Nc1ccc(O[C@@H]2CCN(C(=O)c3cccc(OC(F)(F)F)c3)C2)cc1)C1CN(c2ccnnc2)C1` [Example 462, 1-(pyridazin-4-yl)-N-[4-({(3R)-1-[3-(trifluoromethoxy)benzoyl]pyrrolidin-3-yl}oxy)phenyl]azetidine-3-carboxamide] had a pIC50 of 6.67.

Regarding `O=C(Nc1ccc(O[C@@H]2CCN(C(=O)c3ccccn3)C2)cc1)C1CN(c2ccnnc2)C1` [Example 463, 1-(pyridazin-4-yl)-N-(4-{[(3R)-1-(pyridin-2-ylcarbonyl)pyrrolidin-3-yl]oxy}phenyl)azetidine-3-carboxamide], the pIC50 was 7.15.

Take `O=C(Nc1ccc(O[C@@H]2CCN(C(=O)c3cccc(Cl)c3)C2)cc1)C1CN(c2ccnnc2)C1` [Example 464, N-(4-{[(3R)-1-(3-chlorobenzoyl)pyrrolidin-3-yl]oxy}phenyl)-1-(pyridazin-4-yl)azetidine-3-carboxamide]: the pIC50 was 7.18.

`O=C(Nc1ccc(O[C@@H]2CCN(C(=O)c3ccc(Cl)cc3)C2)cc1)C1CN(c2ccnnc2)C1` [Example 465, N-(4-{[(3R)-1-(4-chlorobenzoyl)pyrrolidin-3-yl]oxy}phenyl)-1-(pyridazin-4-yl)azetidine-3-carboxamide] had a pIC50 of 6.21.

The compound `CC(C)(C(=O)N1CC[C@@H](Oc2ccc(NC(=O)C3CN(c4ccnnc4)C3)cc2)C1)c1ccccc1` [Example 466, N-(4-{[(3R)-1-(2-methyl-2-phenylpropanoyl)pyrrolidin-3-yl]oxy}phenyl)-1-(pyridazin-4-yl)azetidine-3-carboxamide] showed a pIC50 of 8.09.

`O=C(Nc1ccc(O[C@@H]2CCN(C(=O)c3ccc(F)cc3F)C2)cc1)C1CN(c2ccnnc2)C1` [Example 467, N-(4-{[(3R)-1-(2,4-difluorobenzoyl)pyrrolidin-3-yl]oxy}phenyl)-1-(pyridazin-4-yl)azetidine-3-carboxamide] showed a pIC50 of 7.81.

For the compound `COCC(=O)N1CC[C@@H](Oc2ccc(NC(=O)C3CN(c4ccnnc4)C3)cc2)C1` [Example 468, N-(4-{[(3R)-1-(methoxyacetyl)pyrrolidin-3-yl]oxy}phenyl)-1-(pyridazin-4-yl)azetidine-3-carboxamide], the negative-log IC50 (pIC50) was 6.14.

Take `O=C(Nc1ccc(O[C@@H]2CCN(C(=O)c3cccs3)C2)cc1)C1CN(c2ccnnc2)C1` [Example 469, 1-(pyridazin-4-yl)-N-(4-{[(3R)-1-(thiophen-2-ylcarbonyl)pyrrolidin-3-yl]oxy}phenyl)azetidine-3-carboxamide]: the pIC50 was 8.06.

On to `O=C(Nc1ccc(O[C@@H]2CCN(C(=O)Cc3cccc(C(F)(F)F)c3)C2)cc1)C1CN(c2ccnnc2)C1` [Example 470, 1-(pyridazin-4-yl)-N-(4-{[(3R)-1-{[3-(trifluoromethyl)phenyl]acetyl}pyrrolidin-3-yl]oxy}phenyl)azetidine-3-carboxamide], for which the pIC50 was 6.15.

With `CC(C)C(=O)N1CC[C@@H](Oc2ccc(NC(=O)C3CN(c4ccnnc4)C3)cc2)C1` [Example 471, N-(4-{[(3R)-1-(2-methylpropanoyl)pyrrolidin-3-yl]oxy}phenyl)-1-(pyridazin-4-yl)azetidine-3-carboxamide], the pIC50 was 7.14.

As for `O=C(Nc1ccc(O[C@@H]2CCN(C(=O)c3ccccc3F)C2)cc1)C1CN(c2ccnnc2)C1` [Example 472, N-(4-{[(3R)-1-(2-fluorobenzoyl)pyrrolidin-3-yl]oxy}phenyl)-1-(pyridazin-4-yl)azetidine-3-carboxamide], the pIC50 is 8.18.

On to `CCC(C)(C)C(=O)N1CC[C@@H](Oc2ccc(NC(=O)C3CN(c4ccnnc4)C3)cc2)C1` [Example 473, N-(4-{[(3R)-1-(2,2-dimethylbutanoyl)pyrrolidin-3-yl]oxy}phenyl)-1-(pyridazin-4-yl)azetidine-3-carboxamide], for which the pIC50 was 8.03.

For the compound `O=C(Nc1ccc(O[C@@H]2CCN(C(=O)c3cc(F)cc(F)c3)C2)cc1)C1CN(c2ccnnc2)C1` [Example 474, N-(4-{[(3R)-1-(3,5-difluorobenzoyl)pyrrolidin-3-yl]oxy}phenyl)-1-(pyridazin-4-yl)azetidine-3-carboxamide], the pIC50 was 7.16.

`O=C(Nc1ccc(O[C@@H]2CCN(C(=O)c3ccc(C(F)(F)F)cc3)C2)cc1)C1CN(c2ccnnc2)C1` [Example 475, 1-(pyridazin-4-yl)-N-[4-({(3R)-1-[4-(trifluoromethyl)benzoyl]pyrrolidin-3-yl}oxy)phenyl]azetidine-3-carboxamide]: the pIC50 was 6.23.

In turn, `O=C(Nc1ccc(O[C@@H]2CCN(C(=O)c3cccc(F)c3)C2)cc1)C1CN(c2ccnnc2)C1` [Example 476, N-(4-{[(3R)-1-(3-fluorobenzoyl)pyrrolidin-3-yl]oxy}phenyl)-1-(pyridazin-4-yl)azetidine-3-carboxamide] gave a pIC50 of 7.76.

`O=C(Nc1ccc(O[C@@H]2CCN(C(=O)c3ccc(OC(F)(F)F)cc3)C2)cc1)C1CN(c2ccnnc2)C1` [Example 477, 1-(pyridazin-4-yl)-N-[4-({(3R)-1-[4-(trifluoromethoxy)benzoyl]pyrrolidin-3-yl}oxy)phenyl]azetidine-3-carboxamide] showed a pIC50 of 6.63.

`CC(C)CC(=O)N1CC[C@@H](Oc2ccc(NC(=O)C3CN(c4ccnnc4)C3)cc2)C1` [Example 478, N-(4-{[(3R)-1-(3-methylbutanoyl)pyrrolidin-3-yl]oxy}phenyl)-1-(pyridazin-4-yl)azetidine-3-carboxamide] had a negative logarithm of the IC50 (pIC50) of 7.84.

As to `O=C(Nc1ccc(O[C@@H]2CCN(C(=O)CC(F)(F)F)C2)cc1)C1CN(c2ccnnc2)C1` [Example 479, 1-(pyridazin-4-yl)-N-(4-{[(3R)-1-(3,3,3-trifluoropropanoyl)pyrrolidin-3-yl]oxy}phenyl)azetidine-3-carboxamide], the pIC50 was 7.16.

`O=C(Nc1ccc(O[C@@H]2CCN(C(=O)C(F)(F)c3ccccc3)C2)cc1)C1CN(c2ccnnc2)C1` [Example 480, N-[4-({(3R)-1-[difluoro(phenyl)acetyl]pyrrolidin-3-yl}oxy)phenyl]-1-(pyridazin-4-yl)azetidine-3-carboxamide]: the pIC50 was 8.37.

Compound `CC(C)(C)C(=O)N1CC[C@@H](Oc2ccc(NC(=O)C3CN(c4ccnnc4)C3)cc2)C1` [Example 481, N-(4-{[(3R)-1-(2,2-dimethylpropanoyl)pyrrolidin-3-yl]oxy}phenyl)-1-(pyridazin-4-yl)azetidine-3-carboxamide] gave a pIC50 of 7.92.

`O=C(Nc1ccc(O[C@@H]2CCN(C(=O)C3CCC(F)(F)CC3)C2)cc1)C1CN(c2ccnnc2)C1` [Example 482, N-[4-({(3R)-1-[(4,4-difluorocyclohexyl)carbonyl]pyrrolidin-3-yl}oxy)phenyl]-1-(pyridazin-4-yl)azetidine-3-carboxamide]: the pIC50 is 7.49.

The compound `O=C(Nc1ccc(O[C@@H]2CCN(C(=O)c3ccccc3Cl)C2)cc1)C1CN(c2cccnn2)C1` [Example 483, N-(4-{[(3R)-1-(2-chlorobenzoyl)pyrrolidin-3-yl]oxy}phenyl)-1-(pyridazin-3-yl)azetidine-3-carboxamide] had a pIC50 of 8.67.

With `O=C(Nc1ccc(O[C@@H]2CCN(C(=O)c3nccs3)C2)cc1)C1CN(c2cccnn2)C1` [Example 484, 1-(pyridazin-3-yl)-N-(4-{[(3R)-1-(1,3-thiazol-2-ylcarbonyl)pyrrolidin-3-yl]oxy}phenyl)azetidine-3-carboxamide], the pIC50 is 9.25.

For `O=C(Nc1ccc(O[C@@H]2CCN(C(=O)CC3CC3)C2)cc1)C1CN(c2cccnn2)C1` [Example 485, N-(4-{[(3R)-1-(cyclopropylacetyl)pyrrolidin-3-yl]oxy}phenyl)-1-(pyridazin-3-yl)azetidine-3-carboxamide], the pIC50 is 8.20.

`CC[C@H](C)C(=O)N1CC[C@@H](Oc2ccc(NC(=O)C3CN(c4cccnn4)C3)cc2)C1` [Example 486, N-[4-({(3R)-1-[(2S)-2-methylbutanoyl]pyrrolidin-3-yl}oxy)phenyl]-1-(pyridazin-3-yl)azetidine-3-carboxamide] gave a pIC50 of 8.20.

`O=C(Nc1ccc(O[C@@H]2CCN(C(=O)C3CCOCC3)C2)cc1)C1CN(c2cccnn2)C1` [Example 487, 1-(pyridazin-3-yl)-N-(4-{[(3R)-1-(tetrahydro-2H-pyran-4-ylcarbonyl)pyrrolidin-3-yl]oxy}phenyl)azetidine-3-carboxamide] had a pIC50 of 7.14.

The compound `O=C(Nc1ccc(O[C@@H]2CCN(C(=O)Cc3ccc(OC(F)(F)F)cc3)C2)cc1)C1CN(c2cccnn2)C1` [Example 488, 1-(pyridazin-3-yl)-N-(4-{[(3R)-1-{[4-(trifluoromethoxy)phenyl]acetyl}pyrrolidin-3-yl]oxy}phenyl)azetidine-3-carboxamide] had a pIC50 of 7.19.
